In paper PMC8187206 (Pharmacological Reports, 2020):

Key:
[1] = Plasma pharmacokinetics of sorafenib and sorafenib N-oxide after single oral sorafenib in diabetic and healthy rats (HPLC-UV, non-compartmental analysis); assay type: in vivo, Wistar-strain rats; details: single oral sorafenib 100 mg/kg
Experimental: The experimental protocol for this study was reviewed and approved by the Local Ethics Committee. All procedures were performed in accordance with European Union regulations concerning the handling and use of laboratory animals. The study was conducted following the principles of the 3Rs (Replacement, Reduction and Refinement). Adult male Wistar-strain rats (weight 400–445 g) were used in the study. The animals were maintained under standard breeding conditions with a 12 h light–12 h dark cycle at constant room temperature (23 ± 2 °C), relative humidity (55 ± 10%) and given ad libitum access to feed and water. After acclimatisation the rats were randomly assigned into two groups: the diabetic group (DG) (n = 8) and the healthy group (HG) (n = 8).
(§1) DG rats were fed a high-fat diet (Labofeed B, 60% fat; Morawski, Poland) for a period of 4 weeks to induce insulin resistance. After 2 weeks of dietary manipulation the animals were intraperitoneally injected with STZ (35 mg/kg body weight in 1000 μL of sterile citrate buffer, pH 4.2). Citrate buffer was injected as a vehicle in HG. The high-fat diet was continued for subsequent 2 weeks in the DG. The rats in the HG were fed with standard diet (Labofeed B, 8% fat) and water ad libitum. The rats with the blood glucose level ≥ 250 mg/dL were considered diabetic and qualified for this study. The percentage reduction of the glucose levels in the rats was calculated using the following formula: %Reductionglucose=(V0-Vt)·100/V0, where V0 glucose concentration at baseline and Vt glucose concentration at the time of maximum reduction.
(§2) After injecting streptozotocin 10% glucose solution was additionally administered for 24 h to prevent hypoglycaemia. […] The drug was dissolved in 1 mL 10% DMSO and administered orally by means of a gastric feeding tube. 0.1 mL blood samples were collected from rats by cutting a piece of their tails. The samples were collected at the following time points: 0, 0.5, 1, 1.5, 2, 3, 4, 5, 6, 7, 8, 10, 12, 24, 30, 48, 72, 96 h. Each time on blood collection glycaemia was measured.
The validation was performed according to the guidelines of the European Medicines Agency (EMA) concerning validation of bioanalytical methods. Chromatographic analysis was conducted on a Alliance® system with 2695 Separation Module and a Dual Lambda (λ) absorbance detector (Waters Corporation®, USA). Data acquisition was performed using Empower software v. 1154. Separation was carried out on Symmetry® C8 column (250 mm × 4.6 mm, 5.0 µm particle size, Waters Corporation®, USA). The column temperature was maintained at 25 °C. The mobile phase consisted of ammonium acetate 0.1 M pH = 3.4 (adjusted with glacial acetic acid) (solvent A) and acetonitrile (solvent B). The following gradient was used: the percentage A was decreased from 60 to 29%, while at the same time over 21 min percentage B increased linearly from 40 to 71%. The UV detection wavelength was set at 265 nm, and the injection volume was 20 µL. The volume of the analyzed rat plasma was 25 µL. The samples were determined using liquid–liquid extraction.
The maximum plasma concentration (Cmax) and the time to reach the maximum plasma concentration (tmax) were obtained directly from the concentration—time data. The elimination rate constant (kel) was estimated from the slope of the terminal linear segment of the log mean concentration-time plot using the automatic best-fitting option in WinNonlin 8.1. The elimination half-life (t1/2kel) was calculated from ln2/kel. The area under the concentration-time curve from zero to the time of the last concentration measured (AUC0−t) was calculated by a linear trapezoidal rule and the residual area under the curve (AUCres) was estimated by extrapolation from the last concentration measured (Clast) to infinity using Clast/kel ratio. The area under curve from zero to infinity (AUC0−∞) was computed as a sum of AUC0−t and AUCres.

[2] = cited from earlier work
[3] = Effect of a single sorafenib dose on blood glucose level (glycaemia); assay type: in vivo, Wistar-strain rats; details: control group (healthy rats), single oral sorafenib 100 mg/kg
Experimental: as §1, §2

[4] = system: streptozotocin-induced diabetic rats; assay: as above; assay type: in vivo, Wistar-strain rats; details: DG group (diabetic rats), single oral sorafenib 100 mg/kg
Experimental: as §1, §2

[5] = system: patients; details: multiple administration of the TKI; cited from earlier work
[6] = diabetic animals (streptozotocin-induced for sunitinib and lapatinib, alloxan-induced rabbits for erlotinib); cited from earlier work
[7] = increase in diabetic versus healthy rats

Compound | AUC0−t higher in the DG when compared to the HG [1, 7] | AUC0−∞ higher in the DG when compared to the HG [1, 7] | Cmax higher in the DG when compared to the HG [1, 7] | Cmax in diabetic animals [6] | total exposure in diabetic animals [6] | other results
CNC(=O)c1cc(Oc2ccc(NC(=O)Nc3ccc(Cl)c(C(F)(F)F)c3)cc2)cc[n+]1[O-] [Sorafenib N-oxide, sorafenib N-oxide] | 112.55% | 91.87% | 119.57% | – | – | AUMC0-t increase in the DG [1, 7]: 134.31%; AUMC0-∞ increase in the DG [1, 7]: 85.33%; share of circulating substances at steady state [2]: 9–16%
CNC(=O)c1cc(Oc2ccc(NC(=O)Nc3ccc(Cl)c(C(F)(F)F)c3)cc2)ccn1 [Sorafenib] | 66.4% | 56.0% | 88.7% | – | – | Cl/F decreased in diabetic animals ([1]; decrease in diabetic versus healthy rats): 40%; glucose levels [3]: did not decrease; time of maximum reduction of glycaemia after the sorafenib administration [4]: 1.5 to 11 h; maximum reduction of glycaemia ([4]; (V0-Vt)·100/V0): 11.2–50.8%; effect on blood glucose after multiple administration [5]: hypoglycaemic effect
C#Cc1cccc(Nc2ncnc3cc(OCCOC)c(OCCOC)cc23)c1 [erlotinib] | – | – | – | significantly increased | significantly increased | –
CS(=O)(=O)CCNCc1ccc(-c2ccc3ncnc(Nc4ccc(OCc5cccc(F)c5)c(Cl)c4)c3c2)o1 [lapatinib] | – | – | – | significantly increased | significantly increased | –
CCN(CC)CCNC(=O)c1c(C)[nH]c(/C=C2\C(=O)Nc3ccc(F)cc32)c1C [sunitinib] | – | – | – | significantly increased | significantly increased | –
